Entries after “also recorded” stand apart in the source; their conditions may differ.
Legend:
[1] = test system: mouse naïve CD4 T cells; test: Mouse CD4 T cell differentiation; type: cell-based, mouse (BALB/c, C57BL/6)
Method: Naïve CD4^+ T cells were isolated from spleen using the Naïve CD4^+ T cell isolation kit (Stem Cell). Purity was 92% or higher. Naïve CD4^+ T cells (2×10^5 cells/well) were cultured for 3 days with recombinant human/mouse/rat activin A (50 ng/ml, R&D Systems), recombinant mouse IL-12 (10 ng/ml, Peprotech), and/or recombinant mouse IL-6 (20 ng/ml, Peprotech) in the presence of plate-bound anti-mouse-CD3 mAb (8 μg/ml, clone 145-2C11, BioXcell) and anti-mouse-CD28 (8 μg/ml, clone 37.51, BioXcell), in RPMI medium, supplemented with 10% fetal bovine serum, GlutaMAX, penicillin/streptomycin, and 2.5 μM β-mercaptoethanol. After 3 days, cells were removed from stimuli and further cultured for 2 additional days in IL-2 (50 U/mL,) and the same cytokine combination used at day 0. Phenotype was quantified by FACS at day 5 of the in vitro culture.

[2] = test system: autologous memory B cells; test: T-B co-culture, B cell help; type: cell-based, human; details: CD4 T cells differentiated with activin A+IL-12, 7 days with SEB
[3] = test system: SMAD2/3; test: Analysis of phosphorylated SMAD2/3 in blood naïve CD4 T cells; type: cell-based, human
Source text: Fresh PBMCs and tonsil mononuclear cells were serum-starved over night in AIM-V medium. […] Following stimulation, the cells were fixed in BD Phosflow™ Fix Buffer I (BD Biosciences), then permeabilized using BD Phosflow™ Perm Buffer III (BD Biosciences) following manufacture's instruction.

[4] = test system: human naïve CD4 T cells; test: qPCR / flow cytometry of LIF, PRDM1, SLAMF1, ITGβ7 on day 3 differentiated cells; type: cell-based; details: for PRDM1 (BLIMP1) expression: RNA-seq and qPCR
Source text: FIG. 2A-O: Activin A plays a synergic role with IL-12 and molds the human Tfh gene program. (A-B) Bead purified naïve CD4 T cells from multiple healthy subjects were stimulated by anti CD3/CD28 beads on 96 well plates, in the presence of commercial human recombinant activin A, with or without IL-12. […] A representative donor is shown in (A). Data from 12 donors from 6 independent experiments are shown in (B). […] Data from one experiment representative of two are depicted (n=3). (D) Cells were cultured in vitro with different doses of activin A combined with a fixed amount of IL-12 for 5 days in the presence of anti-activin A mAb MOR8806 (block) or isotype control mAb (isotype). Graphs show mean and SEM from 3 independent experiments (n=8). Dotted lines indicate the average percentages of PD-1^+CXCR5^+ cells induced by IL-12 with isotype control mAb from 8 donors. (E) CCR7 MFI on day 5 in vitro differentiated cells. […] (J) RNA-seq analysis on day 3 in vitro differentiated cells. The “Volcano” plots show the absolute gene expression data set (RPKM) from cells differentiated with activin A and IL-12 versus cells differentiated with beads only. […] (K) Heat-map showing absolute expression (RPKM) of selected Tfh signature genes on cells differentiated with beads only, IL-12, activin A or activin A+IL12. (L and N) Relative expression (2-ΔCt) of LIF and PRDM1 was determined by qPCR. (M and O) SLAMF1 and ITGβ7 expression by flow cytometry. In (L) to (0) all the data were obtained from day 3 in vitro differentiated cells and are from at least 3 or more independent experiments (n=9 or higher). Bars show mean and SEM. * p<0.05, ** p<0.01 and *** p<0.001. RNA was isolated by QIAGEN RNeasy spin columns and reverse-transcribed into cDNA using Superscript II Reverse Transcriptase (Invitrogen). Quantitative real-time PCR of ACTB, LIF, and PRDM1 was performed using the following primers: ACTB forward, [NT], ACTB reverse, [NT] forward, [NT] reverse, [NT]; and PRDM1 forward, [NT], PRDM1 reverse [NT]. Real-time PCR was set up with Applied Biosystem SYBR Green Master Mix.

[5] = test system: human naïve CD4 T cells; test: CXCL13 ELISA on supernatants of differentiated CD4 T cells; type: cell-based; details: plate bound anti-CD3 and ICOS-L, 5 days
Method: Unless differently specified, naïve CD4^+ T cells were enriched from PBMCs by magnetic bead negative selection with the Naïve CD4^+ T Cell Isolation Kit (Stem Cell Technologies). Purity (CD4^+CD45RA^+) was 90% or higher. Cells (7.5×10^4 cells/well) were activated by Dynabeads Human T-Activator CD3/CD28 (2 μl/well, Life Technologies) and cultured with recombinant human/mouse/rat activin A (50 ng/ml or 100 ng/ml), recombinant human IL-12 (5 ng/ml), recombinant human TGFβ (1 ng/ml), recombinant human IL-23 (10 ng/ml) or recombinant human IL-35 (10 ng/ml) in the presence of and recombinant human IL-7 (4 ng/ml) in AIM-V medium (Life Technologies). All cytokines were from R&D System and Peprotech. The 14 kDa mature human beta A chain of human activin A shares 100% amino acid sequence identity with bovine, feline, mouse, porcine, and rat beta A. Phenotype was quantified after 3 or 5 days, as specified in the main text of Figure legends. […] For experiments quantifying supernatant CXCL13 concentration, cells were activated by plate-bound anti-human CD3 (5 μg/ml, BD) and ICOS-L (5 μg/ml, recombinant human B7-H2, R&D). CXCL13 concentrations were determined via human CXCL13 DuoSet ELISA (R&D) on supernatants harvested after 5 days of in vitro culture. […]

Substance: activin A: commercial recombinant cytokine, homodimer of the INHBA gene product (inhibin beta A)
- in vitro mouse Tfh differentiation ([1]; activin A in the presence of IL-6): did not result in activin A mediated promotion of in vitro mouse Tfh differentiation
- PD-1 and CXCR5 expression ([1]; mouse CD4 T cells, activin A alone or with IL-12, C57BL/6 and BALB/c): did not have any relevant effect on PD-1 and CXCR5 expression by mouse CD4 T cells; also recorded: No relevant CXCR5 and PD-1 induction
- B cell help (B cell proliferation and survival, plasmablast differentiation, IgG production) [2]: functionally competent B cell helpers
- phosphorylation of SMAD2/3 ([3]; blood naïve CD4 T cells, activin A 400 ng/ml): Phosphorylation of SMAD2/3 in naïve human CD4 T cells in response to activin A was observed
- induction of SMAD-independent pathways ([3]; downstream of activin A, time points analyzed): No relevant induction of SMAD-independent pathways
- LIF and LTα expression ([4]; CD4 T cells cultured with activin A): enhanced CD4 T cell expression of LIF and LTα
- PRDM1 (BLIMP1) expression ([4]; day 3 differentiated cells): express less PRDM1 (Blimp1)
- PRDM1 (BLIMP1) expression ([4]; day 3 differentiated cells, listed as Activin A): significant downregulation of PRDM1
- ITGβ7 expression ([4]; day 3 differentiated cells, flow cytometry): downregulated in the presence of activin A
- CXCL13 expression / secretion [5]: selectively induces CXCL13 expression
